Laboratory results taken from ChEMBL document CHEMBL1151662, “Insect Antifeedant Activity of Four Prieurianin-Type Limonoids” (1985).

Legend:
Type in all cases: functional
[1] = system: Epilachna varivestis; test: Insecticidal activity against mexican bean beetle third instar larvae at 1.5 ug/cm2 applied on upper surface of circular leaf disk after 6 days
[2] = system: Spodoptera eridania; test: Insecticidal activity against southern armyworm third instar larvae at 6 ug/cm2 applied on upper surface of circular leaf disk after 6 days
[3] = system: Epilachna varivestis; test: Insecticidal activity against mexican bean beetle third instar larvae at 19.8 ug/cm2 applied on upper surface of circular leaf disk after 2 days
[4] = system: Spodoptera eridania; test: Insecticidal activity against southern armyworm third instar larvae at 1.5 ug/cm2 applied on upper surface of circular leaf disk after 6 days
[5] = system: Spodoptera eridania; test: Insecticidal activity against southern armyworm third instar larvae at 6 ug/cm2 applied on upper surface of circular leaf disk after 2 days
[6] = system: Spodoptera eridania; test: Insecticidal activity against southern armyworm third instar larvae at 19.8 ug/cm2 applied on upper surface of circular leaf disk after 6 day
[7] = system: Epilachna varivestis; test: Insecticidal activity against mexican bean beetle third instar larvae at 1.5 ug/cm2 applied on upper surface of circular leaf disk after 2 days
[8] = system: Heliothis virescens; test: Insecticidal activity against tobacco budworm third instar larvae at 19.8 ug/cm2 applied on upper surface of circular leaf disk after 6 days
[9] = system: Spodoptera eridania; test: Insecticidal activity against southern armyworm third instar larvae at 1.5 ug/cm2 applied on upper surface of circular leaf disk after 2 days
[10] = system: Heliothis virescens; test: Insecticidal activity against tobacco budworm third instar larvae at 1.5 ug/cm2 applied on upper surface of circular leaf disk after 2 days
[11] = system: Heliothis virescens; test: Insecticidal activity against tobacco budworm third instar larvae at 19.8 ug/cm2 applied on upper surface of circular leaf disk after 2 days
[12] = system: Heliothis virescens; test: Insecticidal activity against tobacco budworm third instar larvae at 1.5 ug/cm2 applied on upper surface of circular leaf disk after 6 days
[13] = system: Spodoptera eridania; test: Insecticidal activity against southern armyworm third instar larvae at 19.8 ug/cm2 applied on upper surface of circular leaf disk after 2 days
[14] = system: Heliothis virescens; test: Insecticidal activity against tobacco budworm third instar larvae at 6 ug/cm2 applied on upper surface of circular leaf disk after 6 days
[15] = system: Epilachna varivestis; test: Insecticidal activity against mexican bean beetle third instar larvae at 19.8 ug/cm2 applied on upper surface of circular leaf disk after 6 days
[16] = system: Epilachna varivestis; test: Insecticidal activity against mexican bean beetle third instar larvae at 6 ug/cm2 applied on upper surface of circular leaf disk after 2 days
[17] = system: Epilachna varivestis; test: Insecticidal activity against mexican bean beetle third instar larvae at 6 ug/cm2 applied on upper surface of circular leaf disk after 6 days
[18] = system: Heliothis virescens; test: Insecticidal activity against tobacco budworm third instar larvae at 6 ug/cm2 applied on upper surface of circular leaf disk after 2 days

Row | Compound | Activity [1] | Activity [2] | Activity [3] | Activity [4] | Activity [5] | Activity [6] | Activity [7] | Activity [8] | Activity [9] | Activity [10] | Activity [11] | Activity [12] | Activity [13] | Activity [14] | Activity [15] | Activity [16] | Activity [17] | Activity [18]
1 | C=C1[C@H]([C@@]2(C)[C@@H](OC(C)=O)CC(=O)O[C@]3(C)COC(=O)C[C@H]23)[C@@H](OC=O)[C@H](OC(=O)CC(C)C)[C@@]2(C)[C@@H](c3ccoc3)CC(=O)[C@@]12O [ROHITIUKIN] | 0% | 0% | 0% | 0% | 0% | 0% | 0% | 30% | 0% | 0% | 0% | 0% | 0% | 0% | 0% | 0% | 0% | 0%
2 | C/C=C(\C)C(=O)O[C@H]1C[C@@H](OC(C)=O)[C@@]2(C(=O)OC)CO[C@H]3[C@@H](O)[C@@](C)([C@]45O[C@@]4(C)[C@@H]4C[C@H]5O[C@@H]5OC=C[C@@]54O)[C@H]4[C@]1(CO[C@]4(O)C(=O)OC)[C@@H]32 [AZADIRACHTIN A] | 60% | 60% | 90% | 30% | 60% | 90% | 30% | 60% | 60% | 60% | 60% | 60% | 90% | 60% | 90% | 90% | 90% | 60%
3 | C=C1[C@@H]([C@@]2(C)C=CC(=O)O[C@]3(C)COC(=O)C[C@H]23)[C@@H](OC=O)[C@H](OC(=O)C(O)C(C)CC)[C@@]2(C)[C@@H](c3ccoc3)C[C@H](OC(C)=O)[C@]12O (some centres not stated) [ROHITIUKA 7] | 0% | 0% | 0% | 0% | 0% | 0% | 0% | 60% | 0% | 0% | 60% | 0% | 0% | 0% | 0% | 0% | 0% | 0%
4 | C=C1[C@@H]([C@@]2(C)[C@@H](OC(C)=O)CC(=O)O[C@](C)(COC(C)=O)[C@@H]2C(=O)OC)[C@@H](OC=O)[C@H](OC(=O)[C@H](O)[C@H](C)CC)[C@@]2(C)[C@H](c3ccoc3)CC(=O)[C@]12O [PRIEURIANIN] | 0% | 0% | 60% | 0% | 0% | 0% | 0% | 60% | 0% | 30% | 60% | 0% | 30% | 60% | 60% | 30% | 30% | 30%
